According to BindingDB's records for doi:10.1021/bi0500628 (Merck Research Laboratories, 2005):
pIC50: −log10 of the molar value.

How the values were obtained:
[1] = target: Insulin-like growth factor 1 receptor (Homo sapiens, UniProt P08069); assay: Homogeneous Time-Resolved Fluorescence (HTRF) Assay; details: pH 7.4; 22 °C
From the text: (§1) The assay uses purified enzyme interacting with biotinylated peptide substrate.HTRF is based on the proximity of europium cryptate (donor fluorophore)-labeled antiphosphotyrosine and streptavidin labeled with APC (allophycocyanin), which have been brought together by a binding reaction. When the two entities come into close proximity and upon excitation, energy transfer occurs and APC re-emits at 665 nm. Relative fluorescence units were read on a Discovery plate reader (Packard). The IC50 values for inhibitors were determined by a four-parameter sigmoidal curve fit.

[2] = target: Insulin receptor (Homo sapiens, UniProt P06213); assay: as above; details: pH 7.4; 22 °C
Chain of Insulin receptor (P06213 28-758 limits assumed): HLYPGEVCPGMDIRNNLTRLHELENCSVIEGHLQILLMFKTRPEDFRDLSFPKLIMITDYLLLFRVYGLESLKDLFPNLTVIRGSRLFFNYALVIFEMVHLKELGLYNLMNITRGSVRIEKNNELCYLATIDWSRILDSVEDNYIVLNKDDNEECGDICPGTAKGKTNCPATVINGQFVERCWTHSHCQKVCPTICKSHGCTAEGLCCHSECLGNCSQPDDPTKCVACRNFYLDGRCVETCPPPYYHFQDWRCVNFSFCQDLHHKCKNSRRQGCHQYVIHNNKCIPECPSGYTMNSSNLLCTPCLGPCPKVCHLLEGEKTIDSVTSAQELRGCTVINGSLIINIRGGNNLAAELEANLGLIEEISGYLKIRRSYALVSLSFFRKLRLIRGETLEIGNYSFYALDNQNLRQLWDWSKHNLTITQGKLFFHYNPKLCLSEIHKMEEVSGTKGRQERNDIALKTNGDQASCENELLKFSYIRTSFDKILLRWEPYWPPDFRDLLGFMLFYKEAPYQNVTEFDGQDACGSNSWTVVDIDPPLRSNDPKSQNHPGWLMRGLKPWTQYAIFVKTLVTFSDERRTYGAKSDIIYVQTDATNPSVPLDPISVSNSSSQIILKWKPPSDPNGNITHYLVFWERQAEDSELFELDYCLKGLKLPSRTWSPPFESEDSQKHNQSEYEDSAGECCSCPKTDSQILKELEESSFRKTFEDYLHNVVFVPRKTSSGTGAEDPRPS
Chain of Insulin receptor (P06213 763-1382 limits assumed): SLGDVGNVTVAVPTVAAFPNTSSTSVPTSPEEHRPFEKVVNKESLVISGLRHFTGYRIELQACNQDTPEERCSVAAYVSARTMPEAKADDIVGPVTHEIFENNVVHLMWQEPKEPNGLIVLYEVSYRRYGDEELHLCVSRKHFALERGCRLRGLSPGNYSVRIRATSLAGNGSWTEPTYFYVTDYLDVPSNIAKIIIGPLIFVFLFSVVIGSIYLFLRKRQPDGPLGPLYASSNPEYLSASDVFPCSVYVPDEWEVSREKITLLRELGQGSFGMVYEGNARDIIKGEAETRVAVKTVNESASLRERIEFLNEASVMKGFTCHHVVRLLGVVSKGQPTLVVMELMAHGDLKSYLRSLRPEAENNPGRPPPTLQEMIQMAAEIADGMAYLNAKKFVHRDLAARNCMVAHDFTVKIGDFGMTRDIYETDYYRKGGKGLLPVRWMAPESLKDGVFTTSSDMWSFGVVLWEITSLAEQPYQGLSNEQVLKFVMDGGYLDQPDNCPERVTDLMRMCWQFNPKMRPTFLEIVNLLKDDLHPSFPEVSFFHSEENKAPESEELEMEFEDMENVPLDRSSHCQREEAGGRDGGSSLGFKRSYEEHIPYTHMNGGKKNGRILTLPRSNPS
From the text: as §1

Chain of Insulin-like growth factor 1 receptor (P08069 31-736 limits assumed): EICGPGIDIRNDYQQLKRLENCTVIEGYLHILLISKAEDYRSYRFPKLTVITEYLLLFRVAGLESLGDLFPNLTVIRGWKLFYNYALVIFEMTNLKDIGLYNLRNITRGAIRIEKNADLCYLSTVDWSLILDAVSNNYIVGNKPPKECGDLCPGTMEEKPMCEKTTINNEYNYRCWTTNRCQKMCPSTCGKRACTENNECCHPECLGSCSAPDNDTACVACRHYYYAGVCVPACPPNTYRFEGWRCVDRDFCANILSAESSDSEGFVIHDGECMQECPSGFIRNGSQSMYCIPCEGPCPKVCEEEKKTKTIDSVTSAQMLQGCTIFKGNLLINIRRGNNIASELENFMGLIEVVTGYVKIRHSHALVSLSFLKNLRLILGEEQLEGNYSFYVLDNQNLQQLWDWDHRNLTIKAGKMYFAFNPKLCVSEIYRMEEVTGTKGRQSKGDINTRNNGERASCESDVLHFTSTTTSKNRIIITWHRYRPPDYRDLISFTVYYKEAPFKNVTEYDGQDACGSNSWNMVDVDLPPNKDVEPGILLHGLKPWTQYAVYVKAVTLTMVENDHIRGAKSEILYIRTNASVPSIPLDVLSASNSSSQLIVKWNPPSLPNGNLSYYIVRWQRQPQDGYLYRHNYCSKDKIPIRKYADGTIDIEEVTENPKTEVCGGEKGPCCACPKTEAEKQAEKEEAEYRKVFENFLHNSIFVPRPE
Chain of Insulin-like growth factor 1 receptor (P08069 741-1367 limits assumed): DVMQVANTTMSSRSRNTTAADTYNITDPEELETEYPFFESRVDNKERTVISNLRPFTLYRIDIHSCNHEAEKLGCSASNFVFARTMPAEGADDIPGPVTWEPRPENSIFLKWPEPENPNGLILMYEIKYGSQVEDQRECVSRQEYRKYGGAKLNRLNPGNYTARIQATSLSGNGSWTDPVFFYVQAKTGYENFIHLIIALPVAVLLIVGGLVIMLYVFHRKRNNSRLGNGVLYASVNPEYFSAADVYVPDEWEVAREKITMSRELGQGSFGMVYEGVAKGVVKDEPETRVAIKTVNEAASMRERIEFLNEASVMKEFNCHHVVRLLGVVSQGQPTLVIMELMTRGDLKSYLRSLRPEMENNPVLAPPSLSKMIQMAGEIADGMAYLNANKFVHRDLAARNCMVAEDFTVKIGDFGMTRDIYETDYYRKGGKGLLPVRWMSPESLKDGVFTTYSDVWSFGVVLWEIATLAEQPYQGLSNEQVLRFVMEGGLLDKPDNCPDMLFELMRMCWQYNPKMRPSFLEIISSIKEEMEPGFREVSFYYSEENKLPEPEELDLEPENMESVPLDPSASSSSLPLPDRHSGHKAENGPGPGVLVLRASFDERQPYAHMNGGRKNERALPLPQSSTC

Row | pIC50 [1] | pIC50 [2] | SMILES
1 | < 4.00 | < 4.00 | CCN(CC)C(=O)c1[nH]c(C=O)c(C(=O)N(CC)CC)c1C [N,N,N,N-Tetraethyl-5-formyl-3-methyl-1H-pyrrole-2,4-dicarboxamide]
2 | 5.37 | 4.92 | CCOC(=O)c1c(CC)c(C(=O)OC(C)(C)C)n(C)c1C=O [2-tert-Butyl 4-Ethyl 3-Ethyl-5-formyl-1-methyl-1H-pyrrole-2,4-dicarboxylate]
3 | 6.31 | 5.70 | CCOC(=O)c1c(C=O)[nH]c(C(=O)OC(C)(C)C)c1CC [2-tert-Butyl 4-Ethyl 3-Ethyl-5-formyl-1H-pyrrole-2,4-dicarboxylate]
4 | 5.59 | 4.77 | CCOC(=O)c1c(C=O)[nH]c(C(=O)NC(C)(C)C)c1CC [ethyl 5-(tert-butylcarbamoyl)-4-ethyl-2-formyl-1H-pyrrole-3-carboxylate]

Continued, molecule first:

Row | SMILES | pIC50 [1] | pIC50 [2]
5 | CCOC(=O)c1[nH]c(C=O)c(C(=O)OCC)c1CC [2,4-diethyl 3-ethyl-5-formyl-1H-pyrrole-2,4-dicarboxylate] | 5.96 | 5.27
6 | COC(=O)[C@]1(O)C[C@@H]2O[C@@]1(C)n1c3ccccc3c3c4c(c5c6ccccc6n2c5c31)C(=O)NC4 [methyl (15R,16S,18S)-16-hydroxy-15-methyl-3-oxo-28-oxa-4,14,19-triazaoctacyclo[12.11.2.1^{15,18}.0^{2,6}.0^{7,27}.0^{8,13}.0^{19,26}.0^{20,25}]octacosa-1(26),2(6),7(27),8(13),9,11,20(25),21,23-nonaene-16-carboxylate] | 6.33 | 6.68
7 | CCOC(=O)c1[nH]c(CO)c(C(=O)OCC)c1C [2,4-diethyl 5-(hydroxymethyl)-3-methyl-1H-pyrrole-2,4-dicarboxylate] | < 4.00 | < 4.00
8 | CCOC(=O)c1[nH]c(C=O)c(C(=O)OCC)c1C [2,4-diethyl 5-formyl-3-methyl-1H-pyrrole-2,4-dicarboxylate] | 5.57 | 4.92
